Legend:
Type in all cases: cell-based, human
[1] = test system: MG-63 cells; assay: Cell viability analysis (MTT), cell number of co-cultured MG-63 cells
Protocol: 0.0001 g, 0.0005 g, 0.005 g, and 0.05 g of VK2 was fine weighed and sterilized by UV light in a sterile hood overnight, then added into 50 ml centrifuge tubes. 50 ml of H-DMEM containing 10% FBS was then added to prepare cell culture medium with different VK2 concentrations: 0 mg/mL, 0.002 mg/mL, 0.01 mg/mL, 0.1 mg/mL, and 1 mg/mL. H-DMEM containing 10% FBS was used to adjust the concentration of MG-63 cell solution to 1×10^4 cells/ml. 1 ml/well of cell solution was seeded to a 24-well plate and incubated in an incubator for 1 day to make cells adhere. Then, the culture medium was removed, 1 ml/well of cell culture medium with different VK2 concentration were added respectively and incubated for 1, 3, and 7 days. Cell viability analysis (MTT) and alkaline phosphatase activity assay (ALP) were conducted. Cell morphology was observed by an inverted microscope and recorded in photographs. 0.01 g of 0%, 0.01%, 0.1%, and 1.0% VK2MS was fine weighed and sterilized by UV light in a sterile hood overnight, then added into 50 ml centrifuge tubes. 50 ml of H-DMEM containing 10% FBS was then added to prepare cell culture medium with different VK2 concentrations. H-DMEM containing 10% FBS was used to adjust the concentration of MG-63 cell solution to 1×10^4 cells/ml. 1 ml/well of cell solution was seeded to a 24-well plate and incubated in an incubator for 1 day to make the cells adhere. Then, the culture medium was removed, 1 ml/well of cell culture medium with different VK2 concentration were added respectively and incubated for 1, 3, and 7 days. In addition, the cell culture medium without microspheres (MS) was added 1 ml/well and incubated for 1, 3, and 7 days as control groups. Subsequently, cell viability analyse (MTT) and alkaline phosphatase activity assays (ALP) were conducted. Cell morphology was observed by an inverted microscope and recorded by photographs. First, MTT was prepared as a 5 mg/mL reaction solution by PBS, then filtered by a 0.22 μm filter. 10% MTT reagent was prepared by H-DMEM, and then stored in the dark. After being cultured for 1 day, the cell culture medium was removed from the 24-well cell culture plate. The 24-well cell culture plate was washed twice by PBS. After the PBS was removed, 1 ml/well of 10% MTT reagent was added to the culture plate and reacted in an incubator (37° C., 5% CO2) in the dark for 4-5 hours. Purple crystal particles were produced at the bottom of culture plate after the reaction. The reactive solution was removed and 350 μl/well of DMSO solution was added. After being mixed, […] of dissolved solution was suctioned to a 96-well plate and the absorbance at 570 nm was detected by an ELISA reader. The reference wavelength was set as 650 nm. A cell standard curve can be made to reckon the cell number. The cell solution was adjusted to have a concentration of 5000, 10000, 25000, 50000, 75000, and 100000 cells/ml by H-DMEM containing 10% FBS then seeded into a 24-well plate, respectively. After 1 day, after the cells were adhered, an MTT cell viability analysis was conducted. Absorbance and cell numbers were used to make a standard curve, such that the cell number could be reckoned from the absorbance. A growth curve of MG-63 cells was made first, and then the cell growth rate could be obtained by dividing the cell viability by that of the control group which was detected by the MTT assay. The result shown in FIG. 9A can be obtained by converting the data from ELISA to a cell number according to the cell growth curve. In FIG. 9A, it is observed that the cell number of MG-63 co-cultured with VK2 is apparently lower than that of the control group. Moreover, the effect of cell growth inhibition becomes obvious with the increasing concentration of VK2. […]

[2] = test system: MG-63 cells; assay: Alkaline phosphatase (ALP) activity test in co-cultured MG-63 cells
Protocol: 0.0001 g, 0.0005 g, 0.005 g, and 0.05 g of VK2 was fine weighed and sterilized by UV light in a sterile hood overnight, then added into 50 ml centrifuge tubes. 50 ml of H-DMEM containing 10% FBS was then added to prepare cell culture medium with different VK2 concentrations: 0 mg/mL, 0.002 mg/mL, 0.01 mg/mL, 0.1 mg/mL, and 1 mg/mL.
H-DMEM containing 10% FBS was used to adjust the concentration of MG-63 cell solution to 1×10^4 cells/ml. 1 ml/well of cell solution was seeded to a 24-well plate and incubated in an incubator for 1 day to make cells adhere. Then, the culture medium was removed, 1 ml/well of cell culture medium with different VK2 concentration were added respectively and incubated for 1, 3, and 7 days. Cell viability analysis (MTT) and alkaline phosphatase activity assay (ALP) were conducted. Cell morphology was observed by an inverted microscope and recorded in photographs. […]
The measurement of ALP is described below. After being cultured for 1 day, the cell culture medium was removed from the 24-well cell culture plate. Then, the 24-well cell culture plate was washed twice by PBS. After the PBS was removed, 200 μl/well of ALP extraction reagent pNPP65 (p-Nitrophenylphosphate) was added to the 24-well culture plate and reacted in an incubator (37° C., 5% CO2) in the dark for 30 minutes. Then, 50 μl of 1N sodium hydroxide was added to stop the reaction. 250 μl/well of supernatant was suctioned to a 96-well plate to detect the OD value at 405 nm by an ELISA reader. Activity of alkaline phosphatase (ALP) can be calculated by the formula below: […]
In this formula, A is the absorbance of a sample at 405 nm; Vt is the total reaction volume, 0.25 ml; Vs is the sample volume, 0.05 ml; t is the reaction time after adding pNPP65 (p-Nitrophenylphosphate), 30 minutes; c is mmol extinction coefficient of pNPP65 (p-Nitrophenylphosphate), 18.6 mM^−1 cm^−1; 1 is the optical path of the cuvette, 1 cm; 1000 is to convert the U/ml to U/l.

[3] = test system: MG-63 cells; assay: as above; conditions: 0.02 mg/mL

vitamin K2 [VK2]
cell number ([1]; 0.002 mg/mL of VK2, day 1): 4.1±0.1 ×10^4 cells | cell number ([1]; 0.002 mg/mL of VK2, day 3): 6.6±0.1 ×10^4 cells | cell number ([1]; 0.002 mg/mL of VK2, day 7): 14.7±0.1 ×10^4 cells | cell number ([1]; 1 mg/mL of VK2, day 1): 2.0±0.0 ×10^4 cells | cell number ([1]; 1 mg/mL of VK2, day 3): 5.0±0.1 ×10^4 cells | cell number ([1]; 1 mg/mL of VK2, day 7): 2.1±0.1 ×10^4 cells | effect on cell proliferation ([1]; MG-63 co-cultured with VK2, 1, 3, 7 days): inhibits cell proliferation | ALP value compared with control group ([2]; 0.002 mg/mL of VK2): higher than that of the control group | ALP activity of a single cell ([2]; 0.002 mg/mL of VK2, day 1): 96.7±1.1 U/L-30 min-10^4 cells | ALP value ([2]; 0.002 mg/mL of VK2, day 1): 399.9±3.3 U/L-30 min | ALP activity of a single cell ([2]; 0.002 mg/mL of VK2, day 3): 62.4±0.9 U/L-30 min-10^4 cells | ALP value ([2]; 0.002 mg/mL of VK2, day 3): 410.7±2.7 U/L-30 min | ALP value ([2]; 0.002 mg/mL of VK2, day 7): 377.4±1.6 U/L-30 min | ALP activity of a single cell ([2]; 0.01 mg/mL of VK2, day 1): 46.4±0.4 U/L-30 min-10^4 cells | ALP value ([2]; 0.01 mg/mL of VK2, day 1): 111.0±0.7 U/L-30 min | ALP activity of a single cell ([2]; 0.01 mg/mL of VK2, day 3): 19.8±0.1 U/L-30 min-10^4 cells | ALP activity of a single cell ([2]; 0.01 mg/mL of VK2, day 7): 8.2±0.0 U/L-30 min-10^4 cells | ALP value ([2]; 0.1 mg/mL of VK2, day 3): 112.2±0.3 U/L-30 min | ALP value ([2]; 0.1 mg/mL of VK2, day 7): 100.6±0.0 U/L-30 min | ALP activity of a single cell ([2]; 1.0 mg/mL of VK2, day 7): 70.4±1.7 U/L-30 min-10^4 cells | effect on ALP activity of cells [3]: enhance the ALP activity of cells
